From ChEMBL document CHEMBL3632500, “Developing structure-activity relationships from an HTS hit for inhibition of the Cks1-Skp2 protein-protein interaction” (Bioorg Med Chem Lett, 2015)
Active and inactive are the calls of the source. The rule behind the calls is not given here.

How the values were obtained:
[1] = target: T1, Cyclin-dependent kinases regulatory subunit 1/S-phase kinase-associated protein 2 (Homo sapiens, UniProt P61024+Q13309); test: Inhibition of Cks1-Skp2 (unknown origin) interaction assessed as increase in p27-GFP level by western blot analysis; format: protein assay
Target sequence in this assay (P61024 2-79 limits assumed): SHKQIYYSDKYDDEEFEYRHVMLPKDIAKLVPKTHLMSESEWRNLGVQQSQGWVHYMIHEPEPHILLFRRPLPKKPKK
Target sequence in this assay (Q13309 whole entry partner): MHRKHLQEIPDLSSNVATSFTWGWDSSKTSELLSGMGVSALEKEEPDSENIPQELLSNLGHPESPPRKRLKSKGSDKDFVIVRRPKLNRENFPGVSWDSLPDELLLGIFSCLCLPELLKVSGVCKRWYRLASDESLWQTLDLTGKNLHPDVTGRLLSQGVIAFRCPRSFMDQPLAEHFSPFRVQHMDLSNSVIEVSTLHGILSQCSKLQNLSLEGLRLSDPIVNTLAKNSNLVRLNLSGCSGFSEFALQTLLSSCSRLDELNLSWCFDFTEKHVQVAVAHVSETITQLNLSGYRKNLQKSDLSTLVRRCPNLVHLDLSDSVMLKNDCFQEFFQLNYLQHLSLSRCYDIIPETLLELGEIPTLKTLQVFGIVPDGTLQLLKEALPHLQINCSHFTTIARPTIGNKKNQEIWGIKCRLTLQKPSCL

[2] = target: T1, Cyclin-dependent kinases regulatory subunit 1/S-phase kinase-associated protein 2; test: Inhibition of Cks1-Skp2 (unknown origin) interaction assessed as increase in p27-GFP level by ELISA; format: protein assay
Target sequence in this assay (P61024 2-79 limits assumed): as the sequence (P61024 2-79 limits assumed) above
Target sequence in this assay (Q13309 whole entry partner): as the sequence (Q13309 whole entry partner) above

A549 [3] = test: Antiproliferative activity against human A549 cells after 6 days; format: functional; conditions: A549, 144 h
[4] = Antiproliferative activity against human HT1080 cells after 6 days; format: functional; conditions: HT-1080, 144 h
NCI-H1299 = test: Antiproliferative activity against human H1299 cells after 2 days; format: functional, cell-based
A549 [5] = test: Antiproliferative activity against human A549 cells after 2 days; format: functional, cell-based
[6] = target: T1, Cyclin-dependent kinases regulatory subunit 1/S-phase kinase-associated protein 2; test: Inhibition of Cks1-Skp2 (unknown origin) interaction after 30 mins by ELISA; format: protein assay
[7] = Homo sapiens, NCI-H1299, 48 h, read-out: IC50
[8] = Homo sapiens, A549, 48 h, read-out: IC50

Row | SMILES | Activity [1] | Activity [2] | GI50 (A549 [3]) [µM] | IC50 (NCI-H1299; [7]) [µM] | IC50 (A549 [5]; [8]) [µM] | GI50 [4] [nM] | other results
1 | O=S(=O)(Nc1ccc(-c2ccccc2)c2cccnc12)C1CC1 | inactive | inactive |  |  |  |  | 
2 | CS(=O)(=O)Nc1ccc(-c2ccccc2)c2cccnc12 | Active | Active |  |  |  |  | 
3 | O=S(=O)(Nc1ccc(-c2cccnc2)c2cccnc12)c1cccnc1 | Active | Active | 0.91 | 1.05 | 1.49 | 400 | 
4 | O=S(=O)(Nc1ccc(-c2cccnc2)c2cccnc12)C1CC1 | inactive | inactive |  |  |  |  | 
5 | O=S(=O)(Nc1ccc(-c2ccccc2)c2cccnc12)c1cccnc1 | Active | Active |  |  |  |  | 
6 | O=S(=O)(Nc1ccc(-c2ccccc2)c2cccnc12)c1cccc(C(F)(F)F)c1 | Active | Active |  |  |  |  | 
7 | O=S(=O)(Nc1ccc(-c2ccncc2)c2cccnc12)c1cccnc1 | inactive | inactive | 5.88 | 9.48 | 11.8 | 1070 | 
8 | Cc1ccc(S(=O)(=O)Nc2cc(Oc3cccc(C#N)c3)cc3cccnc23)cc1 |  |  | 6.48 |  |  | 6830 | IC50 (NCI-H1299; nci-h1299): Not Active; IC50 (A549 [5]; a549): Not Active
9 | Cc1ccc(S(=O)(=O)Nc2cc(Oc3cc(F)cc(F)c3)cc3cccnc23)cc1 | Active | Active | 4.11 | 2.46 | 2.94 | 80 | 
10 | O=S(=O)(Nc1ccc(-c2ccncc2)c2cccnc12)C1CC1 | inactive | inactive |  |  |  |  | 
11 | Cc1ccc(NS(=O)(=O)c2ccc(-c3ccccc3)c3cccnc23)cc1 |  |  |  |  |  |  | inhibition [6]: inactive
12 | COc1ccc(Oc2cc(NS(=O)(=O)c3ccc(C)cc3)c3ncccc3c2)cc1 | inactive | inactive | 4.09 | 11.3 | 16.9 | 740 | 
13 | CS(=O)(=O)Nc1ccc(-c2ccncc2)c2cccnc12 | inactive | inactive |  |  |  |  | IC50 [6]: Not Active
14 | Cc1ccc(S(=O)(=O)Nc2ccc(-c3ccccc3)c3ccncc23)cc1 |  |  |  |  |  |  | inhibition [6]: inactive
15 | Cc1ccc(C(=O)Nc2ccc(Br)c3cccnc23)cc1 |  |  |  |  |  |  | inhibition [6]: inactive
16 | O=S(=O)(Nc1ccc(-c2cccnc2)c2cccnc12)c1cccc(C(F)(F)F)c1 | Active | Active |  | 3.9 | 5.91 |  | 
17 | CS(=O)(=O)Nc1ccc(-c2cccnc2)c2cccnc12 | inactive | inactive |  |  |  |  | 
18 | Cc1ccc(S(=O)(=O)N(C)c2cccc3cccnc23)cc1 |  |  |  |  |  |  | inhibition [6]: inactive

Second part, led by results:

Row | Activity [1] | Activity [2] | GI50 (A549 [3]) [µM] | IC50 (NCI-H1299; [7]) [µM] | IC50 (A549 [5]; [8]) [µM] | SMILES | GI50 [4] [nM] | other results
19 | Active | Active | 26 |  |  | Cc1ccc(S(=O)(=O)Nc2ccc(-c3ccco3)c3cccnc23)cc1 | 9780 | IC50 (NCI-H1299; nci-h1299): Not Active; IC50 (A549 [5]; a549): Not Active
20 | Active | Active | 6.02 | 6.95 | 7.13 | Cc1ccc(S(=O)(=O)Nc2ccc(-c3cccnc3)c3cccnc23)cc1 | 4220 | 
21 | inactive | inactive |  |  |  | Cc1ccc(S(=O)(=O)Nc2ccc(N3CCN(C)CC3)c3cccnc23)cc1 |  | IC50 [6]: Not Active
22 | Active | Active |  |  |  | COc1ccc(S(=O)(=O)Nc2ccc(-c3ccccc3)c3cccnc23)cc1 |  | 
23 | Active | Active | 2.36 | 8.56 | 7.22 | Cc1ccc(S(=O)(=O)Nc2ccc(-c3ccccc3)c3cccnc23)cc1 | 1640 | 
24 |  |  | 48.5 |  |  | Cc1ccc(S(=O)(=O)Nc2ccc(Br)c3ccccc23)cc1 | 27400 | inhibition [6]: inactive; IC50 (NCI-H1299; nci-h1299): Not Active; IC50 (A549 [5]; a549): Not Active
25 | Active | Active |  |  |  | Cc1ccc(S(=O)(=O)Nc2ccc(Br)c3cccnc23)cc1 |  | 
26 | Active | Active | 5.24 |  |  | COc1ccc(S(=O)(=O)Nc2ccc(-c3ccncc3)c3cccnc23)cc1 | 1070 | IC50 ([6]; read-out: IC50): 2450 nM; IC50 (NCI-H1299; nci-h1299): Not Active; IC50 (A549 [5]; a549): Not Active
27 | Active | Active | 1.24 | 5.31 | 7.94 | COc1ccc(S(=O)(=O)Nc2ccc(-c3cccnc3)c3cccnc23)cc1 | 440 | IC50 ([6]; read-out: IC50): 580 nM
28 | inactive | inactive |  |  |  | Cc1ccc(S(=O)(=O)Nc2ccc(N3CCOCC3)c3cccnc23)cc1 |  | IC50 [6]: Not Active
29 | Active | Active | 0.39 |  |  | Cc1ccc(S(=O)(=O)Nc2ccc(-c3cc4ccccc4s3)c3cccnc23)cc1 | 150 | IC50 (NCI-H1299; nci-h1299): Not Active; IC50 (A549 [5]; a549): Not Active
30 | inactive | inactive |  |  |  | Cc1ccc(S(=O)(=O)Nc2ccc(N3CCC(Cc4ccccc4)CC3)c3cccnc23)cc1 |  | IC50 [6]: Not Active
31 | Active | Active | 2.48 | 5.35 | 7.54 | Cc1ccc(S(=O)(=O)Nc2cccc3cccnc23)cc1 | 2460 | IC50 ([6]; read-out: IC50): 2180 nM
32 | Active | Active | 2.36 | 4.09 | 4.63 | Cc1ccc(S(=O)(=O)Nc2ccc(-c3ccsc3)c3cccnc23)cc1 | 640 | 
